Data: US20230391753A1, “THIOBENZIMIDAZOLE DERIVATIVE OR PHARMACEUTICALLY ACCEPTABLE SALT THEREOF AND USE THEREOF” (KOREA UNIVERSITY RESEARCH AND BUSINESS FOUNDATION, priority 2020, published 2023)

Legend:
[1] = tested on: HER2-positive breast cancer cell line BT474; test: MTS cell viability assay, BT474; assay type: cell-based; conditions: 72 hours
Protocol: In the human breast cancer cell lines MDA-MB-231 and JIMT-1, thiobenzimidazole derivatives of Chemical Formulas 1-1, 1-2, 1-3, 1-5, 1-6, 1-7, 1-8, 1-1-11, 1-12, 1-13, 1-14, 1-15, 1-16, 1-17, 1-19, 1-20, 1-21, and 1-22 were treated at various concentrations of 0, 0.5, 1, and 5 μM for 72 hours, respectively, and then cell viability was measured by an MTS assay. In the MTS assay, the cells were attached to a 96 well plate for 24 hours, treated with the thiobenzimidazole derivatives for 72 hours, and then developed with MTS (3-(4,5-dimethylthiazol-2-yl)-5-(3-carboxymethoxyphenyl)-2-(4-sulfophenyl)-2H-tetrazolium) for 4 hours, and then absorbance was measured at 490 nm using a Spectramax Plus384 microplate analyzer. […] The HER2-positive breast cancer cell line BT474 sensitive to Trastuzumab and the HER2-positive breast cancer cell line JIMT-1 resistant to Trastuzumab were treated with the thiobenzimidazole derivative of Chemical Formula 1-3 prepared above and its hydrochloride (Compound 1-23) at the same concentrations of […], 0.1, 0.5, 1, 5, and 10 μM for 72 hours, and then cell viability and IC50 were measured by an MTS assay.

[2] = tested on: JIMT-1 cell line; test: DNA content analysis by flow cytometry (PI), JIMT-1; assay type: cell-based, human; conditions: 0.1, 0.25 and 0.5 μM for 72 hours
Protocol: (§1) The degree of apoptosis of cancer cells induced by the thiobenzimidazole derivative of Chemical Formula 1-3 was measured through DNA content analysis using a flow cytometry. The SKBR3, BT474 and JIMT-1 cell lines were treated with a control (DMSO) and the derivative of Chemical Formula 1-3 at concentrations of 0.1, 0.25 and 0.5 μM for 72 hours, and then the cells were harvested, immobilized with 95% ethanol containing 0.5% Tween-20 for 24 hours, and then stained with propidium iodide (PI, 50 μg/mL) and RNase (50 μg/mL) for 30 minutes. Thereafter, the degree of apoptosis of cancer cells was analyzed using a flow cytometer.
(§2) The result of such apoptosis was shown on the cell cycle as a Sub G1 site, and the ratio of Sub G1 was expressed numerically and shown in FIG. 8.

[3] = tested on: HER2-positive breast cancer cell line JIMT-1; test: MTS cell viability assay, JIMT-1; assay type: cell-based, human; conditions: 72 hours
Protocol: A human triple-negative breast cancer (TNBC) cell line MDA-MB-231 (Cell seeding numbers: 1(M231)×10^4 cells/wells (confluency ≥25%) and an HER2-positive breast cancer (HER2+BC) cell line JIMT-1 (Cell seeding numbers: 1.2 (JIMT)×10^4 cells/wells (confluency ≥25%) were used in the experiment.
The cell lines were cultured in a Dulbecco's modified Eagle's medium (DMEM) containing 10% fetal bovine serum (FBS), streptomycin-penicillin (100 U/mL) and Fungizone (0.625 μg/mL) in an environment of 5% CO2 and 37° C., respectively.
In the human breast cancer cell lines MDA-MB-231 and JIMT-1, thiobenzimidazole derivatives of Chemical Formulas 1-1, 1-2, 1-3, 1-5, 1-6, 1-7, 1-8, 1-1-11, 1-12, 1-13, 1-14, 1-15, 1-16, 1-17, 1-19, 1-20, 1-21, and 1-22 were treated at various concentrations of 0, 0.5, 1, and 5 μM for 72 hours, respectively, and then cell viability was measured by an MTS assay. In the MTS assay, the cells were attached to a 96 well plate for 24 hours, treated with the thiobenzimidazole derivatives for 72 hours, and then developed with MTS (3-(4,5-dimethylthiazol-2-yl)-5-(3-carboxymethoxyphenyl)-2-(4-sulfophenyl)-2H-tetrazolium) for 4 hours, and then absorbance was measured at 490 nm using a Spectramax Plus384 microplate analyzer. […]

[4] = tested on: HER2-positive breast cancer cell line SKBR3; test: Cell viability assay, SKBR3; assay type: cell-based; conditions: SKBR3 (sensitive to Trastuzumab); 72 hours
[5] = tested on: cancer cells; test: Annexin V/PI staining; assay type: cell-based; conditions: 0.1, 0.25, and 0.5 μM for 72 hours
Protocol: In addition, in order to confirm the apoptosis-inducing effect of the derivative of Chemical Formula 1-3, the control (DMSO) and the derivative of Chemical Formula 1-3 were treated at concentrations of 0.1, 0.25, and 0.5 μM for 72 hours, and then the degree of apoptosis was confirmed by Annexin V/PI staining.

[6] = tested on: SKBR3 cell line; test: DNA content analysis by flow cytometry (PI), SKBR3; assay type: cell-based; conditions: 0.1, 0.25 and 0.5 μM for 72 hours
Protocol: as §1, §2

[7] = tested on: BT474 cell line; test: DNA content analysis by flow cytometry (PI), BT474; assay type: cell-based; conditions: 0.1, 0.25 and 0.5 μM for 72 hours
Protocol: as §1, §2

SMILES | melting point | inhibitory effect on cell proliferation ([1]; BT474 (sensitive to Trastuzumab)) | IC50 ([1]; Homo sapiens, BT-474, BT474, MTS) | G2/M phase cell cycle arrest [2] | apoptosis (Sub-G1 population) [2] | IC50 ([3]; Homo sapiens, JIMT-1, MTS) | inhibitory effect on cell proliferation ([3]; JIMT-1 (resistant to Trastuzumab)) | inhibitory effect on cell proliferation [4] | early and late apoptosis (Annexin V/PI) [5] | G2/M phase cell cycle arrest [6] | apoptosis (Sub-G1 population) [6] | G2/M phase cell cycle arrest [7] | apoptosis (Sub-G1 population) [7]
COC(=O)Nc1nc2cc(Sc3ccc(F)cc3)ccc2[nH]1 [Chemical Formula 1-1, methyl 5-(4-fluorophenyl-thio)-1H-benzo[d]imidazol-2-ylcarbamate] | 232 to 233 °C |  |  |  |  |  |  |  |  |  |  |  | 
COC(=O)Nc1nc2cc(Sc3ccc(N4CCN(C)CC4)cc3)ccc2[nH]1 [Chemical Formula 1-3, methyl (5-((4-(4-methylpiperazin-1-yl)phenyl)thio)-1H-benzo[d]imidazol-2-yl) carbamate] |  | inhibitory effect on cell proliferation was exhibited | 2180 nM | arrested the G2/M phase cell cycle | significantly induced apoptosis (Sub-G1 population) | 448 nM | inhibitory effect on cell proliferation was exhibited | inhibitory effect on cell proliferation was exhibited | early and late apoptosis were effectively induced in a concentration-dependent manner | arrested the G2/M phase cell cycle | significantly induced apoptosis (Sub-G1 population) | arrested the G2/M phase cell cycle | significantly induced apoptosis (Sub-G1 population)
